Where two headings read alike, the source gives them in different places.
Columns and labels:
[1] = system: RBL-2H3 cells; experiment: Fluorescence-based assay of store-operated calcium entry in RBL-2H3 cells; assay type: cell-based, rat; set-up: key to RBL-2H3 (IC50, μmol): A < 0.6 μmol; 0.6 μmol ≦ B ≦ 1.2 μmol; C > 1.2 μmol; — = no fit; details: thapsigargin store depletion, 50% inhibition of Upslope; for IC50: Rattus norvegicus, RBL-2H3, read-out: RBL-2H3 (IC50, μmol)
Description: B. Fluorescence-based Assay of Store-Operated Calcium Entry in RBL-2H3Cells.
RBL-2H3 cells are obtained from ATCC and maintained in complete medium with 10% FBS at 37° C./6% CO2.
The day prior to performing the assay, RBL-2H3 cells are plated in 50 μL of complete medium in a 384 well plate. Cells are grown at 37° C./6% CO2 overnight and grow to 50-60% confluence by the next day. On the assay day, 1.5 μM Fluo-4-AM dye (Invitrogen) in complete medium is added and incubated for 1 hour at RT. Cells are washed twice in Ca^2+-free HBSS buffer and 35 μL Ca^2+-free HBSS buffer is added to each well. 10 μL of a test compound prepared in a Ca^2+-free HBSS solution at 4.5× of the desired concentration is added to a well and incubated for 5 minutes at RT. 10 μL of thapsigargin prepared in a Ca^2+-free HBSS solution at 5.5× of the desired concentration (5.5 uM) is added to each well and incubated for an additional 25 minutes. The initial baseline fluorescence signal is measured with a FLIPR^384 (Molecular Devices) plate reader. 5 μL of 12× calcium in HBSS (12 mM) is added and changes in cellular fluorescence are measured with the FLIPR^384 plate reader. In each well, the change in the fluorescent signal as a function of time due to calcium entry into the cell is determined by calculating the difference between the fluorescent signal measured 7 seconds after calcium addition and the initial baseline fluorescence signal at time zero (t=0). This parameter is designated Upslope. The IC50 value is calculated as the concentration at which 50% of the Upslope is inhibited.

[2] = target: T1, Orai1/STIM1 (Homo sapiens, UniProt Q96D31); experiment: Fluorescence-based assay of store-operated calcium entry in Orai1/STIM1 stable cells; assay type: cell-based; set-up: key to Orai1/STIM1 (IC50, μmol): A < 0.6 μmol; 0.6 μmol ≦ B ≦ 1.2 μmol; C > 1.2 μmol; — = no fit; details: HEK-293 cells stably expressing human STIM1 and Orai1, 50% inhibition of Peak-Basal fluo-4 signal; for IC50: read-out: Orai1/STIM1 (IC50, μmol)
T1 construct: expressed in transfected cells; host or cells: HEK-293
Description: A. Fluorescence-based Assay of Store-Operated Calcium Entry in Orai1/STIM1 Stable Cells.
Cells stably expressing recombinant human STIM1 and Orai1 are generated by transfecting a human Orai1 expression plasmid (pcDNA3.1-Orai1-cmyc) into HEK-293 cells stably overexpressing human STIM1 (Roos et al. 2005 JCB 169(3): 435-445). Colonies of cells stably expressing both STIM1 and Orai1 proteins are selected and then subcloned by limiting dilution. Cells were cultured at 37° C./6% CO2 in complete medium with 10% FBS and appropriate selection markers.
The day prior to performing the assay Orai1/STIM1 stable cells are plated in 50 μL of complete medium at 90-95% confluence in a 384 well plate. Cells are grown at 37° C./6% CO2 overnight. On the day of the assay, 1.5 μM fluo-4-AM (Invitrogen) in complete medium is added to the cells, which are then incubated for 1 hour at RT. Cells are washed once in Ca^2+-free HBSS (Hank's buffered saline solution) and 35 μl of Ca^2+-free HBSS is added to each well. Test compounds are added to wells in a 10 μL Ca^2+-free HBSS solution, prepared at 4.5× the desired final concentration, and incubated for 30 minutes at RT. The initial baseline fluorescence signal is then measured with a FLIPR^384 (Molecular Devices) plate reader. Calcium entry is initiated by adding 5 μl of 10× CaCl2 (10 mM) in HBSS, and changes in cellular fluorescence are measured with the FLIPR^384 plate reader. In each well, the magnitude of the fluorescence signal as a result of calcium entry into the cell is determined by calculating the difference between the peak fluorescence signal measured after calcium addition and the initial baseline fluorescence signal (designated Peak-Basal). IC50 values are typically calculated as the concentration that inhibited 50% of the Peak-Basal signal (Table A).

T1 sequence (Q96D31 whole entry): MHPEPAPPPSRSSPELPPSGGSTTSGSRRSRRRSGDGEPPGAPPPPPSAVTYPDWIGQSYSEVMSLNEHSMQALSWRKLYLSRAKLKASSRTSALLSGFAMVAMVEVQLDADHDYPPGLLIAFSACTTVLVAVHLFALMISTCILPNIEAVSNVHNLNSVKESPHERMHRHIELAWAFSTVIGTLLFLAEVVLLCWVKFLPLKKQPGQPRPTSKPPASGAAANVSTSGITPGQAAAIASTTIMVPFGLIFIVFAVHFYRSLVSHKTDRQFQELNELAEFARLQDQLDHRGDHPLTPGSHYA

| IC50 ([1]; Table iv) | IC50 ([2]; Table iv) | IC50 ([1]; Table iii) | IC50 ([2]; Table iii) | Compound | other results |
| --- | --- | --- | --- | --- | --- |
| < 600 nM | > 1200 nM |  |  | Cc1nc(C(F)(F)F)cn1-c1ccc(NC(=O)c2c(F)cc(F)cc2F)cc1F |  |
|  |  | > 1200 nM | 600 to 1200 nM | Cn1nc(C(F)(F)F)cc1-c1ccc(NCc2ccccc2F)c(F)c1 |  |
| < 600 nM | < 600 nM |  |  | Cc1ccccc1C(=O)Nc1ccc(-c2cc(C(F)(F)F)nn2C)c(F)c1 |  |
|  |  | < 600 nM | < 600 nM | Cc1cccc(F)c1CNc1ccc(-c2cc(C(F)(F)F)nn2C)c(F)c1 |  |
|  |  | < 600 nM | < 600 nM | Cc1nc(C(F)(F)F)cn1-c1ccc(NCc2c(F)cc(F)cc2F)cc1F |  |
| < 600 nM | 600 to 1200 nM |  |  | Cc1cc(C(F)(F)F)nn1-c1ccc(NC(=O)c2c(F)cc(F)cc2F)cc1 |  |
|  |  | < 600 nM | 600 to 1200 nM | Cn1nc(C(F)(F)F)cc1-c1ccc(NCc2cncc(F)c2)cc1F |  |
|  |  | 600 to 1200 nM | > 1200 nM | Cc1nnsc1CNc1ccc(-c2cc(C(F)(F)F)nn2C)c(F)c1 |  |
|  |  | < 600 nM | < 600 nM | Cn1nc(C(F)(F)F)cc1-c1ccc(NCc2ccncc2F)cc1F |  |
|  |  | < 600 nM |  | Cn1nc(C(F)(F)F)cc1-c1c(F)cc(NCc2ccc(F)cc2F)cc1F | Orai1/STIM1 (IC50, μmol) ([2]; Table iii): — |
| < 600 nM | > 1200 nM |  |  | Cc1nc(C(F)(F)F)cn1-c1ccc(NC(=O)c2c(F)ccc(F)c2F)cc1F |  |
| < 600 nM | < 600 nM |  |  | Cn1nc(C(F)(F)F)cc1-c1ccc(NC(=O)c2c(F)cncc2F)cc1F |  |
| < 600 nM | < 600 nM |  |  | Cc1sc(C(F)(F)F)nc1-c1ccc(NC(=O)c2c(F)cc(F)cc2F)cc1 |  |
| < 600 nM | > 1200 nM |  |  | Cc1cc(C(F)(F)F)nn1-c1ccc(NC(=O)c2c(F)cncc2F)cc1 |  |
| < 600 nM | > 1200 nM |  |  | Cc1cc2c(cc1-c1ccc(NC(=O)c3c(F)cncc3F)cc1)OC(F)(F)O2 |  |
| < 600 nM | 600 to 1200 nM |  |  | Cn1nc(C(F)(F)F)cc1-c1c(F)cc(NC(=O)c2c(F)cncc2F)cc1F |  |

| IC50 ([1]; Table iv) | IC50 ([2]; Table iv) | IC50 ([1]; Table iii) | IC50 ([2]; Table iii) | Compound | other results |
| --- | --- | --- | --- | --- | --- |
| < 600 nM | < 600 nM |  |  | Cn1nc(C(F)(F)F)cc1-c1ccc(NC(=O)c2ccccc2F)cc1 |  |
| 600 to 1200 nM | < 600 nM |  |  | Cn1nc(C(F)(F)F)cc1-c1ccc(NC(=O)c2cncc(F)c2)cc1F |  |
|  |  | < 600 nM | < 600 nM | Cn1nc(C(F)(F)F)cc1-c1ccc(NCc2c(F)cc(F)cc2F)cc1F |  |
|  |  | < 600 nM | 600 to 1200 nM | Cn1nc(C(F)(F)F)cc1-c1ccc(NCc2c(F)cncc2F)c(F)c1 |  |
| < 600 nM | < 600 nM |  |  | Cc1nnsc1C(=O)Nc1ccc(-c2cc(C(F)(F)F)nn2C)c(F)c1 |  |
| < 600 nM | < 600 nM |  |  | Cc1cc(F)ccc1C(=O)Nc1ccc(-c2cc(C(F)(F)F)nn2C)c(F)c1 |  |
| < 600 nM | < 600 nM |  |  | CCn1nc(C(F)(F)F)cc1-c1ccc(NC(=O)c2c(F)cccc2F)cc1F |  |
| < 600 nM | > 1200 nM |  |  | Cc1cc2c(cc1-c1ccc(NC(=O)c3c(F)cncc3F)cc1F)OC(F)(F)O2 |  |
|  |  | < 600 nM | 600 to 1200 nM | Fc1cncc(F)c1CNc1ccc(-n2nc(C(F)(F)F)cc2C(F)(F)F)cc1 |  |
| < 600 nM | > 1200 nM |  |  | Cc1cc(F)ccc1C(=O)Nc1ccc(-n2cc(C(F)(F)F)nc2C)c(F)c1 |  |
| < 600 nM | < 600 nM |  |  | Cn1nc(C(F)(F)F)cc1-c1ccc(NC(=O)c2c(F)cccc2F)cc1F |  |
|  |  | < 600 nM | < 600 nM | Cn1nc(C(F)(F)F)cc1-c1ccc(NCc2c(F)cccc2F)c(F)c1 |  |
| < 600 nM | < 600 nM |  |  | CCn1nc(C(F)(F)F)cc1-c1ccc(NC(=O)c2c(F)cccc2F)cc1 |  |
| < 600 nM | 600 to 1200 nM |  |  | Cn1nc(C(F)(F)F)cc1-c1ccc(NC(=O)c2c(F)ccc(F)c2F)cc1F |  |
|  |  | < 600 nM | < 600 nM | Cn1nc(C(F)(F)F)cc1-c1ccc(NCc2c(F)cccc2F)cc1 |  |
| < 600 nM | < 600 nM |  |  | Cn1nc(C(F)(F)F)cc1-c1ccc(NC(=O)c2c(F)cccc2F)c(F)c1 |  |

Continued, compound first:

| Compound | IC50 ([1]; Table iv) | IC50 ([2]; Table iv) | IC50 ([1]; Table iii) | IC50 ([2]; Table iii) | other results |
| --- | --- | --- | --- | --- | --- |
| Cn1nc(C(F)(F)F)cc1-c1ccc(NC(=O)c2ccccc2F)c(F)c1 |  |  |  |  | RBL-2H3 (IC50, μmol) ([1]; Table iv): —; Orai1/STIM1 (IC50, μmol) ([2]; Table iv): Max inh. <50% |
| Cn1nc(C(F)(F)F)cc1-c1ccc(NCc2ccccc2F)cc1 |  |  | < 600 nM | < 600 nM |  |
| Cc1cc2c(cc1-c1ccc(NC(=O)c3scnc3C)cc1)OC(F)(F)O2 | < 600 nM | 600 to 1200 nM |  |  |  |
| Cc1nn(C(F)F)cc1-c1ccc(NCc2c(F)cc(F)cc2F)cc1 |  |  | < 600 nM | < 600 nM |  |
| Cc1cc(F)ccc1CNc1ccc(-n2cc(C(F)(F)F)nc2C)c(F)c1 |  |  | < 600 nM | > 1200 nM |  |
| Cc1cc(C(F)(F)F)nn1-c1ccc(NCc2ccc(F)cc2F)cc1 |  |  | < 600 nM | 600 to 1200 nM |  |
| Cc1nn(C(F)F)cc1-c1ccc(NC(=O)c2c(F)cc(F)cc2F)cc1 | < 600 nM | < 600 nM |  |  |  |
| Cc1nc(C(F)(F)F)cn1-c1ccc(NC(=O)c2ccccc2F)cc1 | < 600 nM | 600 to 1200 nM |  |  |  |
| Fc1cccc(F)c1CNc1ccc(-n2nc(C(F)(F)F)cc2C(F)(F)F)cc1 |  |  | < 600 nM | 600 to 1200 nM |  |
| Cc1nc(C(F)(F)F)cn1-c1ccc(NC(=O)c2ccccc2F)cc1F | < 600 nM | > 1200 nM |  |  |  |
| Fc1ccccc1CNc1ccc(-n2nc(C(F)(F)F)cc2C(F)(F)F)cc1 |  |  | < 600 nM | < 600 nM |  |
| Cc1cccc(F)c1CNc1ccc(-c2cn(C(F)F)nc2C)cc1 |  |  | < 600 nM | < 600 nM |  |
| Cc1sc(C(F)(F)F)nc1-c1ccc(NCc2c(F)cccc2F)cc1 |  |  | < 600 nM | < 600 nM |  |
| Cc1cc(C(F)(F)F)nn1-c1ccc(NCc2c(F)cccc2F)cc1 |  |  | < 600 nM | < 600 nM |  |
| Cc1ccccc1CNc1ccc(-c2nc(C(F)(F)F)sc2C)cc1 |  |  | < 600 nM | 600 to 1200 nM |  |
| Cc1nn(C(F)F)cc1-c1ccc(NC(=O)c2ccccc2F)cc1F | 600 to 1200 nM | < 600 nM |  |  |  |
| Cc1nn(C(F)F)cc1-c1ccc(NC(=O)c2c(F)cccc2F)cc1F | < 600 nM | < 600 nM |  |  |  |
| Cc1nc(C(F)(F)F)cn1-c1ccc(NCc2c(F)cc(F)cc2F)cc1 |  |  | < 600 nM | < 600 nM |  |
| Cc1cc2c(cc1-c1ccc(NCc3ccccc3F)cc1)OC(F)(F)O2 |  |  | < 600 nM | > 1200 nM |  |
| Cc1cc(C(F)(F)F)nn1-c1ccc(NCc2ccccc2F)cc1 |  |  | < 600 nM | < 600 nM |  |
| Cc1cccc(F)c1CNc1ccc(-c2cn(C(F)F)nc2C)c(F)c1 |  |  | < 600 nM | < 600 nM |  |
| Cc1nn(C(F)F)cc1-c1ccc(NCc2c(F)cc(F)cc2F)cc1F |  |  | < 600 nM | < 600 nM |  |
| Cc1cc2c(cc1-c1ccc(NC(=O)c3cncc(F)c3)cc1)OC(F)(F)O2 | < 600 nM | 600 to 1200 nM |  |  |  |
| Cc1cc2c(cc1-c1ccc(NCc3ccccc3F)cc1F)OC(F)(F)O2 |  |  | < 600 nM | > 1200 nM |  |
| Cc1nn(C(F)F)cc1-c1ccc(NCc2c(F)cccc2F)cc1F |  |  | < 600 nM | < 600 nM |  |
| Cc1nn(C(F)F)cc1-c1ccc(NC(=O)c2c(F)ccc(F)c2F)cc1 | < 600 nM | < 600 nM |  |  |  |

— US20140256771A1, “COMPOUNDS THAT MODULATE INTRACELLULAR CALCIUM” (CalciMedica, Inc., priority 2011, published 2014)
